Reference: patent US8134004B2, “Substituted N-bicyclicalkyl bicycliccarboxyamide compounds” (Pfizer Inc., priority 2006, dated 2012)
pIC50: −log10 of the molar value.

Biological target: human VR1 (Homo sapiens, UniProt Q8NER1)
Assay: Human VR1 antagonist assay (Ca2+ imaging)
Format: cell-based
Conditions: Ca2+ imaging assay using human VR1 highly expressing cells, fura-2/AM; agonist stimulation (capsaicin 300 nM or acid pH 5.8), not given
Text: Human VR1 Antagonist Assay
VR1 antagonistic activity can be determined by the Ca^2+ imaging assay using human VR1 highly expressing cells. The cells that highly express human VR1 receptors are obtainable from several different conventional methods. The one standard method is cloning from human Dorsal Root Ganglion (DRG) or kidney according to the methods such as described in the journal article; Nature, 389, pp 816-824, 1997. Alternatively VR1 receptors highly expressing human keratinocytes are also known and published in the journal article (Biochemical and Biophysical Research Communications, 291, pp 124-129, 2002). […] Furthermore, the method to up regulate human VR1 gene, which is usually a silent gene or don't produce detectable level of VR1 receptors, is also available to obtain propriety cells. Such genetic modification method was described in detail; Nat. Biotechnol., 19, pp 440-445, 2001.
The cells that express human VR1 receptors were maintained in culture flask at 37° C. in an environment containing 5% CO2 until use in the assay. The intracellular Ca^2+ imaging assay to determine VR1 antagonistic activities were done by following procedures.
The culture medium was removed from the flask and fura-2/AM fluorescent calcium indicator was added to the flask at a concentration of 5 μM in the medium. The flask was placed in CO2 incubator and incubated for 1 hour. Then the cells expressing the human VR1 receptors were detached from the flask follow by washing with phosphate buffer saline, PBS(−) and re-suspended in assay buffer. The 80 μl of aliquot of cell suspension (3.75×10^5 cells/ml) was added to the assay plate and the cells were spun down by centrifuge (950 rpm, 20° C., 3 minutes).
The compounds of the examples were tested in the Human VR1 antagonist assay described above.
The capsaicin-induced changes in the intracellular calcium concentration were monitored using FDSS 6000 (Hamamatsu Photonics, Japan), a fluorometric imaging system. The cell suspension in Krebs-Ringer HEPES (KRH) buffer (115 mM NaCl, 5.4 mM KCl, 1 mM MgSO4, 1.8 mM CaCl2, 11 mM D-Glucose, 25 mM HEPES, 0.96 mM Na2HPO4, pH 7.3) were pre-incubated with varying concentrations of the test compounds or KRH buffer (buffer control) for 15 minutes at room temperature under the dark condition. Then capsaicin solution, which gives 300 nM in assay mixture, was automatically added to the assay plate by the FDSS 6000.
The Acid-induced changes in the intracellular calcium concentration were monitored using FDSS 6000 (Hamamatsu Photonics, Japan), a fluorometric imaging system. The cell suspension in resting buffer (HBSS supplemented with 10 mM HEPES, pH 7.4) were pre-incubated with varying concentrations of the test compounds or resting buffer (buffer control) for 15 minutes at room temperature under the dark condition. The cells were automatically added the stimulating solution (HBSS supplemented with MES, final assay buffer pH5.8) by the FDSS 6000.
The monitoring of the changes in the fluorescence signals (λex=340 nm/380 nm, λem=510-520 nm) was initiated at 1 minute prior to the addition of capsaicin solution or acidic buffer and continued for 5 minute.

Sequence of human VR1 (Q8NER1 whole entry): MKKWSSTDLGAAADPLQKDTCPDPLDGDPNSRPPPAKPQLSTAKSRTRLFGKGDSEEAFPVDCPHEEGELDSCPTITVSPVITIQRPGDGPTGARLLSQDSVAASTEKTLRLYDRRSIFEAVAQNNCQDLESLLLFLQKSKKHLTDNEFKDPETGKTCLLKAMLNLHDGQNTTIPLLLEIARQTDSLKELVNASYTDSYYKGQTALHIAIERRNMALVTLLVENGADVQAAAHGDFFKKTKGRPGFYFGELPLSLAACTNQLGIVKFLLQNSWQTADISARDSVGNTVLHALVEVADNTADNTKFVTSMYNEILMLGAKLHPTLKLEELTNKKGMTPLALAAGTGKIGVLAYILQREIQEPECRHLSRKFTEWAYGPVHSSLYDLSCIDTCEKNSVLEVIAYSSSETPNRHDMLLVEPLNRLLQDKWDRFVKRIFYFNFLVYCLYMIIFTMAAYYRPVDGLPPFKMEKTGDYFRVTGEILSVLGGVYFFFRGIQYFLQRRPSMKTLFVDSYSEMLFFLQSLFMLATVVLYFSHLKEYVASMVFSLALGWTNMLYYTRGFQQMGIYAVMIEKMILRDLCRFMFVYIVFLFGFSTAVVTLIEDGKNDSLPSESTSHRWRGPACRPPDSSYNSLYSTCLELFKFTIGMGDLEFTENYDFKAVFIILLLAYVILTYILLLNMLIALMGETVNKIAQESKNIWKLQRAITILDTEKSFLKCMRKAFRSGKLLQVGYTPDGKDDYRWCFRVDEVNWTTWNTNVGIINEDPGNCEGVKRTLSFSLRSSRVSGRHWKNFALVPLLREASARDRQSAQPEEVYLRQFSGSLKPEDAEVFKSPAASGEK

pIC50	Compound
6.39	O=C(NCc1ccnc2ccccc12)c1ccc2cc(C3CC3)ccc2c1 [Example A8, 6-cyclopropyl-N-(quinolin-4-ylmethyl)-2-naphthamide]
6.75	CC(O)(c1ccc2cc(C(=O)NCc3cccc4cnccc34)ccc2n1)C(F)(F)F (centres unmarked) [Example C17, N-(isoquinolin-5-ylmethyl)-2-(2,2,2-trifluoro-1-hydroxy-1-methylethyl)quinoline-6-carboxamide]
